According to patent publication US6914045B2, “Glycopeptide antibiotics” (Wyeth Holdings Corporation, priority 2001, dated 2005):

Key:
Escherichia coli = assay: in vitro antibacterial evaluation, MIC by broth dilution; type: cell-based; settings: 18 hours at 35° C.
Streptococcus sp. = assay: as above; type: cell-based; settings: broth dilution, 18 hours at 35° C.
Outline: (§1)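 Read-out: the lowest concentration at which the test strain fails to grow. Serial dilutions (64-0.06 μg/mL) in Muller-Hinton II […], 5×10^5 CFU/mL inoculum, NCCLS M7-A2 procedure.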

Staphylococcus sp. = assay: as above; type: cell-based; settings: broth dilution, 18 hours at 35° C.
Outline: as §1

Enterococcus sp. = assay: as above; type: cell-based; settings: broth dilution, 18 hours at 35° C.
Outline: as §1

[1] = test system: Staphylococcus aureus-SMITH (GC 4543); assay: acute lethal infection in mice; type: in vivo; settings: acute lethal infection, female CD-1 mice, intraperitoneal challenge, intravenous 30 min. after infection, 7 day survival
Outline: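 Mice (female CD-1, 20+/−2 gm) receive bacteria ip in broth or hog gastric mucin, then test agent iv after 30 min. Median effective dose is calculated from 7 day survival pooled across 3 tests.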

CC(c1ccccc1)C1NC(=O)CNC(=O)C(CO)NC(=O)C(C(O)C2CNC(=N)N2C2OC(CO)C(O)C(O)C2O)NC(=O)C(C(O)C2CNC(=N)N2)NC(=O)C(Cc2ccc(OC3OC(CO)C(OC4OC(COCc5ccc(OCc6ccccc6)cc5)C(O)C(O)C4O)C(O)C3O)cc2)NC1=O (stereo not drawn) [Example 231, Cyclo[glycyl-β-methylphenylalanyl-O-[4-O-[6-O-[4-(phenylmethoxy)benzyl]hexopyranosyl]-hexopyranosyl]tyrosyl-3-(2-iminoimidazolidin-4-yl)seryl-3-(3-hexopyranosyl-2-iminoimidazolidin-4-yl)serylseryl]]
<0.06 µg/mL: MIC Streptococcus agalactiae (GC 4564) (Streptococcus sp.) | MIC Streptococcus pneumoniae (ATCC 6301) (Streptococcus sp.) | MIC Streptococcus pneumoniae (GC 1894) (Streptococcus sp.) | MIC Streptococcus pneumoniae (GC 4565) (Streptococcus sp.) | MIC Streptococcus pyogenes (GC 4563) (Streptococcus sp.) | MIC Streptococcus pneumoniae (ATCC 6301) (Streptococcus sp.; inoculum 5×10^5 CFU/mL, strain ATCC 6301) | MIC Streptococcus pneumoniae (GC 1894) (Streptococcus sp.; inoculum 5×10^5 CFU/mL, strain GC 1894) | MIC Streptococcus pyogenes (GC 4563) (Streptococcus sp.; inoculum 5×10^5 CFU/mL, strain GC 4563) | MIC Streptococcus agalactiae (GC 4564) (Streptococcus sp.; inoculum 5×10^5 CFU/mL, strain GC 4564) | MIC Streptococcus pneumoniae (GC 4565) (Streptococcus sp.; inoculum 5×10^5 CFU/mL, strain GC 4565)
2 to 4 µg/mL: MIC Staphylococcus aureus (GC 1131) (Staphylococcus sp.) | MIC Staphylococcus aureus (GC 4542) (Staphylococcus sp.) | MIC Staphylococcus aureus (GC 4544) (Staphylococcus sp.) | MIC Staphylococcus aureus (GC 1131) (Staphylococcus sp.; strain GC 1131) | MIC Staphylococcus aureus (GC 4542) (Staphylococcus sp.; strain GC 4542) | MIC Staphylococcus aureus (GC 4544) (Staphylococcus sp.; strain GC 4544) | MIC Enterococcus avium (GC 4558) (Enterococcus sp.) | MIC Enterococcus faecalis (GC 2691) (Enterococcus sp.) | MIC Enterococcus faecalis (GC 3059) (Enterococcus sp.) | MIC Enterococcus faecalis (GC 6189) (Enterococcus sp.) | MIC Enterococcus faecalis (GC 2691) (Enterococcus sp.; inoculum 5×10^5 CFU/mL, strain GC 2691) | MIC Enterococcus faecalis (GC 3059) (Enterococcus sp.; inoculum 5×10^5 CFU/mL, strain GC 3059) | MIC Enterococcus avium (GC 4558) (Enterococcus sp.; inoculum 5×10^5 CFU/mL, strain GC 4558) | MIC Enterococcus faecalis (GC 6189) (Enterococcus sp.; inoculum 5×10^5 CFU/mL, strain GC 6189)
1 µg/mL: MIC Coagulase Negative Staphylococcus (GC 4551) (Staphylococcus sp.) | MIC Coagulase Negative Staphylococcus (GC 4551) (Staphylococcus sp.; strain GC 4551)
2 µg/mL: MIC Staphylococcus aureus-SMITH (GC 4543) (Staphylococcus sp.) | MIC Staphylococcus aureus-SMITH (GC 4543) (Staphylococcus sp.; strain GC 4543)
4 µg/mL: MIC Enterococcus faecalis (ATCC 29212) (Enterococcus sp.) | MIC Enterococcus faecalis (GC 2242) (Enterococcus sp.) | MIC Enterococcus faecalis (GC 4552) (Enterococcus sp.) | MIC Enterococcus faecalis (GC 4553) (Enterococcus sp.) | MIC Enterococcus faecalis (GC 4554) (Enterococcus sp.) | MIC Enterococcus faecium (GC 2243) (Enterococcus sp.) | MIC Enterococcus faecium (GC 4556) (Enterococcus sp.) | MIC Enterococcus faecalis (ATCC 29212) (Enterococcus sp.; inoculum 5×10^5 CFU/mL, strain ATCC 29212) | MIC Enterococcus faecalis (GC 2242) (Enterococcus sp.; inoculum 5×10^5 CFU/mL, strain GC 2242) | MIC Enterococcus faecium (GC 2243) (Enterococcus sp.; inoculum 5×10^5 CFU/mL, strain GC 2243) | MIC Enterococcus faecalis (GC 4552) (Enterococcus sp.; inoculum 5×10^5 CFU/mL, strain GC 4552) | MIC Enterococcus faecalis (GC 4553) (Enterococcus sp.; inoculum 5×10^5 CFU/mL, strain GC 4553) | MIC Enterococcus faecalis (GC 4554) (Enterococcus sp.; inoculum 5×10^5 CFU/mL, strain GC 4554) | MIC Enterococcus faecium (GC 4556) (Enterococcus sp.; inoculum 5×10^5 CFU/mL, strain GC 4556)
0.25 mg/kg: median effective dose (ED50), Staphylococcus aureus-SMITH (GC 4543) [1]
1 to 4 µg/mL: MIC Staphylococcus aureus (ATCC 29213) (Staphylococcus sp.) | MIC Staphylococcus aureus (GC 4541) (Staphylococcus sp.) | MIC Staphylococcus aureus (GC 4545) (Staphylococcus sp.) | MIC Staphylococcus haemolyticus (GC 4546) (Staphylococcus sp.) | MIC Staphylococcus aureus (ATCC 29213) (Staphylococcus sp.; strain ATCC 29213) | MIC Staphylococcus aureus (GC 4541) (Staphylococcus sp.; strain GC 4541) | MIC Staphylococcus aureus (GC 4545) (Staphylococcus sp.; strain GC 4545) | MIC Staphylococcus haemolyticus (GC 4546) (Staphylococcus sp.; strain GC 4546)
0.25 to 0.5 µg/mL: MIC Coagulase Negative Staphylococcus (GC 4549) (Staphylococcus sp.) | MIC Coagulase Negative Staphylococcus (GC 4549) (Staphylococcus sp.; strain GC 4549)
0.5 to 2 µg/mL: MIC Escherichia coli (GC 4560) (Escherichia coli)
0.5 to 1 µg/mL: MIC Coagulase Negative Staphylococcus (GC 4548) (Staphylococcus sp.) | MIC Coagulase Negative Staphylococcus (GC 6257) (Staphylococcus sp.) | MIC Coagulase Negative Staphylococcus (GC 4548) (Staphylococcus sp.; strain GC 4548) | MIC Coagulase Negative Staphylococcus (GC 6257) (Staphylococcus sp.; strain GC 6257)
>128 µg/mL: MIC Escherichia coli (ATCC 25922) (Escherichia coli) | MIC Escherichia coli (GC 4559) (Escherichia coli)
1 to 2 µg/mL: MIC Coagulase Negative Staphylococcus (GC 4547) (Staphylococcus sp.) | MIC Staphylococcus aureus (GC 3051) (Staphylococcus sp.) | MIC Staphylococcus aureus (GC 3053) (Staphylococcus sp.) | MIC Staphylococcus aureus (GC 3051) (Staphylococcus sp.; strain GC 3051) | MIC Staphylococcus aureus (GC 3053) (Staphylococcus sp.; strain GC 3053) | MIC Coagulase Negative Staphylococcus (GC 4547) (Staphylococcus sp.; strain GC 4547) | MIC Enterococcus faecium (GC 4557) (Enterococcus sp.) | MIC Enterococcus faecium (GC 4557) (Enterococcus sp.; inoculum 5×10^5 CFU/mL, strain GC 4557)
